According to PubChem BioAssay (NCI):
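Compound exposure: 48 hours, 5 concentrations, 96-well plates. The concentration for full growth arrest is given as TGI.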 Where a SMILES comes first, the peptide text is derived from it. The star is where a group is joined. X36 = O=C(c1ccc(-c2ccc(Cl)cc2Cl)o1)*

Columns and labels:
Test in all cases: NCI anticancer screen, dose series, 48 h
[1] = test system: SK-OV-3 ovarian
[2] = test system: SK-MEL-5 melanoma
[3] = test system: KM12 colon
[4] = test system: LOX IMVI melanoma
[5] = test system: HL-60(TB) leukemia
[6] = test system: NCI-H460 lung
[7] = test system: HOP-62 NSCLC
[8] = test system: UACC-62 melanoma
[9] = test system: M14 melanoma
[10] = test system: K-562 leukemia

| SMILES | TGI [1] [µM] | TGI [2] [µM] | TGI [3] [µM] | TGI [4] [µM] | TGI [5] [µM] | TGI [6] [µM] | TGI [7] [µM] | TGI [8] [µM] | TGI [9] [µM] | TGI [10] [µM] |
| --- | --- | --- | --- | --- | --- | --- | --- | --- | --- | --- |
| CCn1nc2c3c(ncn3C(C)(C)O2)c1=O | > 100 | > 100 | > 100 | > 100 | > 100 | > 100 | > 100 | > 100 | > 100 | > 100 |
| COC(=O)N/N=C(\C)C(CN1CCCCC1)C(C1=C(O)c2ccccc2OC1)c1ccccc1 (stereo not given) | > 100 | > 100 | > 100 | > 100 | > 100 | > 100 | > 100 | > 100 | > 100 | > 100 |
| O=C1NC(N/N=C/C(O)C(O)C(O)CO)=N/C1=C\c1ccco1 (stereo not given) | > 100 | > 100 | > 100 | > 100 | > 100 | > 100 | > 100 | > 100 | > 100 | > 100 |
| Nc1ccc(N=Nc2ccccc2)cc1 | > 100 | > 100 | > 100 | > 100 | > 100 | > 100 | > 100 | > 100 | > 100 | > 100 |
| O=c1c2ncn(COCCCl)c2n(-c2ccccc2)c(=S)n1-c1ccccc1 | > 100 | > 100 | > 100 | > 100 | > 100 | > 100 | > 100 | > 100 | > 100 | > 100 |
| Cc1ccc2c(=O)cc(-c3cccs3)[nH]c2n1 | > 100 | > 81.9 | > 100 | > 100 | 25.5 | > 100 | > 100 | > 100 | > 100 | > 100 |
| C/C=C/C(O)P1(=O)N(Cc2ccccc2)[C@@H]2CCCC[C@H]2N1Cc1ccccc1 (stereo not given in full) | > 25 | > 25 | > 25 | > 25 | > 25 | > 25 | > 25 | > 25 | > 25 | > 25 |
| C1CCC2C(C1)CCCC2NC1=NCCO1 (stereo not given) | > 100 | > 100 | > 100 | > 100 | > 100 | > 100 | > 100 | > 100 | > 100 | > 100 |
| CCC(C)C(NC(=O)CNC(=O)C(Cc1ccccc1)NC(=O)C1CCCN1C(=O)c1ccc(-c2ccc(Cl)cc2Cl)o1)C(=O)OC (stereo not given) (X36-PFGI-OMe; configuration not given here) | > 100 | 45.6 | > 100 | > 100 | > 100 | > 100 | > 100 | > 100 | > 100 | > 100 |
| N#Cc1c(-c2ccccc2)nc(-c2ccccc2)sc1=S | > 100 | > 100 | > 100 | > 100 | > 100 | > 100 | > 100 | > 100 | > 100 | > 100 |
| COc1ccc(/C=N/N=C(\N)NO)c(O)c1 | > 10 | > 10 | > 10 | > 10 | > 10 | > 10 | > 10 | > 10 | > 10 | > 10 |
| CC1=NN2C(=N)/C(=C/c3ccco3)C(=O)N=C2S1 | > 100 | > 100 | > 100 | > 100 | > 100 | > 100 | > 100 | > 100 | > 100 | > 100 |
| Cc1ccc(/C(O)=C/C(=O)C(=O)/C=C(\O)c2ccc(C)cc2C)c(C)c1 | 3.47 | 3.26 | 3.44 | 5.96 | 0.58 | 3.47 | 3.24 | 3.38 | 3.27 | 9.58 |
| CCOC(=O)/C1=C(\C)N(c2ccc(C)cc2)C(=O)c2ccccc2C(=O)c2c(OC(C)=O)ccc(OC(C)=O)c21 | 70.9 | > 100 | 40.6 | 41.7 | 54.4 | 47.8 | 87.3 | 42.1 | 54.3 | 38.7 |
| CCC1(C)N=C(c2cnccn2)NN1c1ccc(Cl)cc1 (stereo not given) | > 100 | > 100 | > 100 | > 100 | > 100 | > 100 | > 100 | > 100 | > 100 | > 100 |
| O=C(CSc1nnc(Cc2ccccc2)o1)Nc1ccc([N+](=O)[O-])cc1 | > 100 | > 100 | > 100 | > 100 | > 100 | > 100 | > 100 | > 100 | > 100 | > 100 |
| CC(=O)O[C@H]1CC[C@@]2(C)C(=CC[C@H]3[C@@H]4C[C@H](N5CCCC5)[C@H](OC(C)=O)[C@@]4(C)CC[C@@H]32)C1 | > 100 | 54.8 | > 100 | > 100 | > 80.9 | > 100 | > 100 | > 100 | 33.9 | > 67.4 |
| CC(=O)OC1CC2C(C)(C)OC(=O)CC(OC(C)=O)[C@]2(C)C2CCC3(C)C(=CCC3[C@H]3COC(=O)C3)[C@]12C (stereo not given in full) | > 100 | > 100 | > 100 | > 100 | > 100 | > 100 | > 100 | > 100 | > 100 | > 100 |
